Measured values taken from ChEMBL document CHEMBL5131375, “Recent Developments in the Use of Kinase Inhibitors for Management of Viral Infections” (J Med Chem, 2022).

Experiments:
[1] = tested on: Influenza A virus; assay: Antiviral activity against influenza A virus infected in human A549 cells assessed as inhibition of viral replication at 4 uM relative to control; assay type: functional; parameters: scale not given: the % may be the effect or the level left
[2] = tested on: Lyssavirus rabies; assay: microbe, parasite or virus in culture; assay type: functional, organism-based
[3] = tested on: Transmissible gastroenteritis virus; assay: Antiviral activity against TGEV assessed as reduction in virus titre at 4 uM; assay type: functional
[4] = Inhibition of PDGF (unknown origin); parameters: species or system Homo sapiens
[5] = tested on: Transmissible gastroenteritis virus; assay: Antiviral activity against TGEV assessed as log reduction in virus progeny at 4 uM; assay type: functional
[6] = tested on: Murine coronavirus; assay: Antiviral activity against MHV assessed as log reduction in virus progeny at 4 uM; assay type: functional
[7] = tested on: Porcine epidemic diarrhea virus; assay: Antiviral activity against PEDV assessed as log reduction in virus progeny at 4 uM; assay type: functional
[8] = tested on: Feline infectious peritonitis virus; assay: Antiviral activity against FIPV assessed as log reduction in virus progeny at 4 uM; assay type: functional
[9] = Cytotoxicity against pig PK-15 cells; assay type: toxicity, cell-based, Sus scrofa
[10] = Cytotoxicity against golden hamster BSR cells; assay type: toxicity, cell-based, Mesocricetus auratus
[11] = in vitro; details: human, ccrf-cem
[12] = in vitro; details: human, jurkat
[13] = in vitro; details: human, u-937
[14] = Cytotoxicity against human A549 cells; assay type: toxicity, cell-based
[15] = Cytotoxicity against human NCI-H1650 cells; assay type: toxicity, cell-based
[16] = target: Focal adhesion kinase 1 (Homo sapiens, UniProt Q05397); assay: Inhibition of FAK (unknown origin)
Sequence of Focal adhesion kinase 1 (Q05397 whole entry): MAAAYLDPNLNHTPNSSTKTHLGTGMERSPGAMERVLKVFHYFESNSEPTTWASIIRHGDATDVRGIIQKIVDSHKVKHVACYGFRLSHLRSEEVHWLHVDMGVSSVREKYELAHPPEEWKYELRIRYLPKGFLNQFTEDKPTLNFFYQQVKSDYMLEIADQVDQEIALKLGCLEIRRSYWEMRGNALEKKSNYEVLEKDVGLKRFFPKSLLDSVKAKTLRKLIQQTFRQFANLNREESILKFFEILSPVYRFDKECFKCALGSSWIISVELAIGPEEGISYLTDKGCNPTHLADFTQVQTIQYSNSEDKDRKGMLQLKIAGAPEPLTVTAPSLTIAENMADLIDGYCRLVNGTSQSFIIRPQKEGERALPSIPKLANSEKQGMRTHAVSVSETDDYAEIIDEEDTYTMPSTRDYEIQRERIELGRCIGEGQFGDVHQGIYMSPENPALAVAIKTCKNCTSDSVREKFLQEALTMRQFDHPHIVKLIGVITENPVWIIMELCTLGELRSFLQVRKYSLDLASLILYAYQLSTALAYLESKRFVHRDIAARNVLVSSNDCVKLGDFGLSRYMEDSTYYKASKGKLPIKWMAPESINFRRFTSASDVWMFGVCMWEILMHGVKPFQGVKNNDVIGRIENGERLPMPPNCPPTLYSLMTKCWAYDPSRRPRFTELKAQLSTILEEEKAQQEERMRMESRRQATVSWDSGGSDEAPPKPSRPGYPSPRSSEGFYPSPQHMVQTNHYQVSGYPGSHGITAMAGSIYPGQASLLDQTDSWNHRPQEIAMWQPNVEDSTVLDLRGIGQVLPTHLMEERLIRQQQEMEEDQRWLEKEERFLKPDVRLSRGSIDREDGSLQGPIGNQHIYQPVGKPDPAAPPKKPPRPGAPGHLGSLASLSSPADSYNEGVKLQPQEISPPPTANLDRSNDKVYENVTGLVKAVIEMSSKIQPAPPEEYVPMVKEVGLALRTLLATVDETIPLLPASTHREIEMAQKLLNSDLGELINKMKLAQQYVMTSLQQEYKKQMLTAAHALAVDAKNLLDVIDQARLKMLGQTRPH

[17] = Cytotoxicity against human NCI-H358 cells; assay type: toxicity, cell-based
[18] = tested on: Influenza A virus; assay: microbe, parasite or virus in culture; assay type: functional, organism-based
[19] = target: Phosphatidylinositol 4-phosphate 3-kinase C2 domain-containing subunit beta (Homo sapiens, UniProt O00750); assay: Inhibition of PIK3C2beta (unknown origin)
Sequence of Phosphatidylinositol 4-phosphate 3-kinase C2 domain-containing subunit beta (O00750 whole entry, the tested form may be a part): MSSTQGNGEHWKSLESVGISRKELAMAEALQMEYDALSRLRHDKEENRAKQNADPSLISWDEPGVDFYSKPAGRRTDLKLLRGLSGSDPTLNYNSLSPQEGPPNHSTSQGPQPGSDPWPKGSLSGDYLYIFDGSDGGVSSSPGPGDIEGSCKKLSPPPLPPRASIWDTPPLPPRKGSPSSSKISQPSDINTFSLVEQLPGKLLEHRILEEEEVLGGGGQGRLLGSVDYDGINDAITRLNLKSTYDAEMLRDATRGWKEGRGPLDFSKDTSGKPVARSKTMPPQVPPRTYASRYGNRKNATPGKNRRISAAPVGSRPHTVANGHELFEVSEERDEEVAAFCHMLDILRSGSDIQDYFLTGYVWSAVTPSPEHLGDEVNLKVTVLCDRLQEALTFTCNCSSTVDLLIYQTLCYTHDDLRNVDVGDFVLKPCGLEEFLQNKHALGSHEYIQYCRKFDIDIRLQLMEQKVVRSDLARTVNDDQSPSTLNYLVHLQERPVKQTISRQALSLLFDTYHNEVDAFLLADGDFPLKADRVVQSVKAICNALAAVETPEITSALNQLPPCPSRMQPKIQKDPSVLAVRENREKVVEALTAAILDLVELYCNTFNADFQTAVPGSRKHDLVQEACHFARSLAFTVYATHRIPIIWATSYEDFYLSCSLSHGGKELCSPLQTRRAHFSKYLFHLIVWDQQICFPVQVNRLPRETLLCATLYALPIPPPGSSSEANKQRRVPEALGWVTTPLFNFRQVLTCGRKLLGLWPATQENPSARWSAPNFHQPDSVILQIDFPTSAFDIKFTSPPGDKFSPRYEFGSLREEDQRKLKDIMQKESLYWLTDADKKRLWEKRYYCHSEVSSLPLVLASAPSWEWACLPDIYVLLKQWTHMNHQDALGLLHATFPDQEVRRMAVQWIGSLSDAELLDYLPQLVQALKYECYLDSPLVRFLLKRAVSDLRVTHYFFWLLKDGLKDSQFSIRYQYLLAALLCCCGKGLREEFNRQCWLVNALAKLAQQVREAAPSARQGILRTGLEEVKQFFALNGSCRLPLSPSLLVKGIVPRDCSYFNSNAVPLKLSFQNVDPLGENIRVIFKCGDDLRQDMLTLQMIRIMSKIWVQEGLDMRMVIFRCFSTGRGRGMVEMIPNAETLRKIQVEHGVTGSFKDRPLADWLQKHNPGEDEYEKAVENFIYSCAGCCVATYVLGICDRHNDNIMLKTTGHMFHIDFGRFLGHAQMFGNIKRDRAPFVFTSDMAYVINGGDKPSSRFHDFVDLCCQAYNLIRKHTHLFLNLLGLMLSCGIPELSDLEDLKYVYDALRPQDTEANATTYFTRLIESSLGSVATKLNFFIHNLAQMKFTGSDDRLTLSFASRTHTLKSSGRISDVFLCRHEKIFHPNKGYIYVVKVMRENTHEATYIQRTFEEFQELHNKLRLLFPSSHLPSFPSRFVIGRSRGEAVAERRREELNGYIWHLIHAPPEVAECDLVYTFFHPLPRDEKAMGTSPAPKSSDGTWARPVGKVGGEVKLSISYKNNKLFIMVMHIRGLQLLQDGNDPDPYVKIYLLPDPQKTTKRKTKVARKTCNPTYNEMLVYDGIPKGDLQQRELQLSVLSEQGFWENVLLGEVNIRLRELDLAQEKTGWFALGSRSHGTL

[20] = tested on: Influenza B virus; assay: Antiviral activity against influenza B virus; assay type: functional, organism-based
[21] = tested on: Human rhinovirus sp.; assay: Antiviral activity against RV; assay type: functional, organism-based, Enterovirus
[22] = target: Epidermal growth factor receptor (Homo sapiens, UniProt P00533)
Sequence of Epidermal growth factor receptor (P00533 whole entry): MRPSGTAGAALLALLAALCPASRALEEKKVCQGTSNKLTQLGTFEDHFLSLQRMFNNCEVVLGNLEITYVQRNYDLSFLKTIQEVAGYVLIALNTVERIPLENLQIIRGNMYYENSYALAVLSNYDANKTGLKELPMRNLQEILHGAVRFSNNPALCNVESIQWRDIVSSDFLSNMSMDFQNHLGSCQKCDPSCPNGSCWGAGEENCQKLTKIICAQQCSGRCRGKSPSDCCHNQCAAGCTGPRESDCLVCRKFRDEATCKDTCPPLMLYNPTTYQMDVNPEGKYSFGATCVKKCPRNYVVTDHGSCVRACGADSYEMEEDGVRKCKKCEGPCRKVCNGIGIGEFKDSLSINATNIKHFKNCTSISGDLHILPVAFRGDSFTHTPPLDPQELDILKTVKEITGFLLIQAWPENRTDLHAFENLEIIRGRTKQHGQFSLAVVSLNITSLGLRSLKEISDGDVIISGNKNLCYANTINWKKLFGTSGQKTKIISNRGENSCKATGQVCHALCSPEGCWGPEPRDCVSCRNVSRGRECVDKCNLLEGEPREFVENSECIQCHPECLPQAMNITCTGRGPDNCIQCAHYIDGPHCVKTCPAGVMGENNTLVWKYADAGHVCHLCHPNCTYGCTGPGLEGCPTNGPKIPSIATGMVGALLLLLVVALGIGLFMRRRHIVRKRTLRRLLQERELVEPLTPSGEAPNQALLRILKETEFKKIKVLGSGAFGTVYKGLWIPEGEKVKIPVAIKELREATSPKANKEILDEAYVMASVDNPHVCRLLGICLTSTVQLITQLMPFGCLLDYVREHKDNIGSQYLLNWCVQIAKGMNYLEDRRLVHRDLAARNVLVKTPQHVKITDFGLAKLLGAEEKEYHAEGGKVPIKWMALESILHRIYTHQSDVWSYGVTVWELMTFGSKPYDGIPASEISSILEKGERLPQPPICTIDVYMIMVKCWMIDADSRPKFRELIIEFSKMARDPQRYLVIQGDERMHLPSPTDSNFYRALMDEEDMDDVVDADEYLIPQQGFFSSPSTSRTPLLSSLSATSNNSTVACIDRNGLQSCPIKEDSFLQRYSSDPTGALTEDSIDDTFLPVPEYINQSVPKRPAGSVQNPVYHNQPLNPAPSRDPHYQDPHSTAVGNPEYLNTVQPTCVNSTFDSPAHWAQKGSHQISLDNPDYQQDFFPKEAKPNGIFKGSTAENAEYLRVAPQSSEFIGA

[23] = in vitro; details: human, Huh-7 cells
[24] = in vitro; details: dog, MDCK cells
[25] = tested on: Hepatitis C virus; assay: microbe, parasite or virus in culture
[26] = tested on: Dengue virus; assay: Antiviral activity against DENV infected in HEK293 cells; assay type: functional, organism-based
[27] = Cytotoxicity against HEK293 cells; assay type: toxicity, cell-based; details: human
[28] = tested on: Dengue virus; assay: microbe, parasite or virus in culture
[29] = Cytotoxicity against MDDC cells (unknown origin); assay type: toxicity, cell-based
[30] = target: Cyclin-dependent kinase 2 (Homo sapiens, UniProt P24941)
[31] = Cytotoxicity against human astrocyte cells; assay type: toxicity, cell-based
[32] = tested on: Zika virus; assay: microbe, parasite or virus in culture
[33] = tested on: Hepatitis B virus; assay: microbe, parasite or virus in culture; assay type: functional, organism-based
[34] = tested on: HepG2; assay: Cytotoxicity against human HepG2 cells at 1 uM; assay type: toxicity, cell-based; details: hepg2, 1 µM
[35] = tested on: Zika virus; assay: Antiviral activity against ZIKV MR766 infected in 1 hr pretreated rhesus monkey LLC-MK2 cells measured after 24 to 72 hrs; assay type: functional, organism-based
[36] = target: Cyclin-dependent kinase 7 (Homo sapiens, UniProt P50613)
Sequence of Cyclin-dependent kinase 7 (P50613 whole entry): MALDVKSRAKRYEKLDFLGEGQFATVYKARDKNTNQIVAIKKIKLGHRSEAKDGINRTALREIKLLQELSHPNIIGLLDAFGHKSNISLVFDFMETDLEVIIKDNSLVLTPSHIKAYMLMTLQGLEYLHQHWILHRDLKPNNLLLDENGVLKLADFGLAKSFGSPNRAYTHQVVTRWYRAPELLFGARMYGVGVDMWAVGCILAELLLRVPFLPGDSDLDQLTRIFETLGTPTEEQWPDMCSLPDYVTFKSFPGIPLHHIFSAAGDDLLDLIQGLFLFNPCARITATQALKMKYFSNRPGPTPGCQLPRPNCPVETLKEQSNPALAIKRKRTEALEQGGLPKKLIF

[37] = Cytotoxicity against human HCT-116 cells; assay type: toxicity, cell-based
[38] = tested on: Zaire ebolavirus; assay: microbe, parasite or virus in culture; assay type: functional, organism-based
[39] = tested on: Hepatitis C virus; assay: Antiviral activity against HCV assessed as fold reduction in virus titre at 10 uM; assay type: functional, Hepacivirus hominis
[40] = in vitro; details: human, hek-293t
[41] = tested on: Human immunodeficiency virus 1; assay: Antiviral activity against HIV-1 assessed as inhibition of Nef mediated replication; assay type: functional, organism-based
[42] = Cytotoxicity against human CEM-T4 cells; assay type: toxicity, cell-based

In the case of `CC(C)(C)c1cc(C=C(C#N)C#N)cc(C(C)(C)C)c1O` [TYRPHOSTIN A9], the Activity [1] is reported as 50%, the EC50 [2] is reported as 0.9 µM and the “log(activity)” value [3] is reported as 3. The IC50 [4] was 0.5 µM, the “log(activity)” value [5] was 2.3 and the “log(activity)” value [6] was 2.3. For the same compound, the “log(activity)” value [7] was 2.3, the “log(activity)” value [8] was 2.3 and the CC50 [9] was > 6 µM. For the same compound, the CC50 [10] was 150 µM.

For `O=C1Cc2c([nH]c3ccc([N+](=O)[O-])cc23)-c2ccccc2N1` [ALSTERPAULLONE], the CC50 [11] was > 1 µM, the CC50 [12] was > 1 µM and the CC50 [13] was > 1 µM.

With `Nc1cc(N)c(N)cc1N` the CC50 [14] was > 1 µM, the CC50 [15] was > 1 µM and the IC50 [16] was 1 µM. The CC50 [17] was > 1 µM.

With `O=C(Cc1cccs1)Nc1cccc(-c2ccc3nnc(-c4cccnc4)n3n2)c1` the EC50 [18] was 0.35 µM, the CC50 [14] was > 50 µM and the IC50 [19] was 0.43 µM. The EC50 [20] was 0.4 µM, the EC50 [21] was 0.05 µM and the IC50 [22] was 0.079 µM. The CC50 [23] was > 50 µM, the CC50 [24] was > 50 µM and the EC50 [25] was 0.76 µM.

With `O=S(=O)(NCCNC/C=C/c1ccc(Br)cc1)c1cccc2cnccc12` the IC50 [26] was 0.9 µM, the CC50 [27] was > 1 µM and the IC50 [28] was 0.96 µM.

With `COc1cc(-c2cnc3c(N4C[C@@H](C)O[C@@H](C)C4)snc3c2)ccc1N` the CC50 [29] was > 20 µM and the EC50 [28] was 3.5 µM.

With `CCCc1cnc(NC(=O)[C@@H](C)c2ccc(NC(C)=O)cc2)s1` the IC50 [30] was 0.031 µM, the CC50 [31] was > 10 µM and the IC50 [32] was 0.09 µM.

For `Cc1n[nH]c2ccc(-c3cncc(OC[C@@H](N)Cc4c[nH]c5ccccc45)c3)cc12` [A-443654], the “inhibition (INH)” value [33] was 50% and the Activity [34] was “Non-Toxic”.

In the case of `CC(C)c1[nH]n(-c2c(Cl)cccc2Cl)c2nc(Cc3ccc(OCCO)cc3)nc(=O)c1-2`, the IC50 [35] is reported as 0.027 µM, the IC50 [36] is reported as 0.071 µM and the CC50 [37] is reported as 0.04 µM. It also gave an IC50 [32] of 0.09 µM.

In the case of `O=c1cc(N2CCOCC2)oc2c(-c3ccccc3)cccc12` [LY-294002], the EC50 [38] is reported as 1.8 µM, the “fold change (FC)” value [39] is reported as 5 and the CC50 [40] is reported as > 20 µM.

For `NC(=S)n1nc(-c2ccc([N+](=O)[O-])cc2)c(/N=N/c2cccc(Cl)c2)c1O`, the IC50 [41] was 0.3 µM and the CC50 [42] was > 10 µM.
